Patent publication US7259265B2, “Coumarin compounds and method for preparing and using the same” (Shanghai Institute of Organic Chemistry, Chinese Academy of …, priority 2003, dated 2007)
≈ marks a conversion by molar mass, not a printed value. Read-outs that look alike come from different tables or passages of the source.

Key:
CHL cell = assay: Chromosome aberration test of CHL mammal cell; assay type: cell-based; settings: for mutagenicity: 24 hours, -S9
Protocol: The purpose of the Example was to assess whether 4,4′-biisofraxidin caused the chromosome aberration of CHL cell. Firstly, Median Inhibitory Concentration (IC50) was obtained by general method and regarded as the maximum dosage. Then, the maximum dosage was diluted at 0.5 time at multiple times to get three dosage groups. The experiment was conducted at a —S9 system (without hamster liver S9 system). […] The antifungal compound was added to the cultured cell directly for 24 hours in order to observe whether 4,4′-biisofraxidin caused chromosome aberration in CHL cell. […] Therefore, 4,4′-biisofraxidin was a weak mutagen at a relatively high dosage under the test conditions.

[1] = test system: S. Typhimurium TA97, TA98, TA 100, and TA102; assay: Bacteria reverse mutation test; assay type: cell-based; settings: without S9
Protocol: According to the conditions of mutation test in the Guide Compilation of New Medicament (Western Medicament) Before Clinic (Pharmacy, Pharmacology, and Toxicology) (Edition July 1993, Bureau of Pharmaceutical Policy, Chinese Department of Health), 4,4′-biisofraxidin was tested at a dosage of 5, 50, 500, 1000, and 5000 μg/dish in the system without S9.

candida Albicans CMCC = assay: In vitro drug sensitivity MIC test; assay type: cell-based
Protocol: (§1) The tested fungi were confected to a suspension with normal saline, and further diluted to a suspension with the turbidity of more than 2.0 McFarland Standards (McF). Then, the suspension was diluted 100 times with normal saline, and diluted 10 times with RPMI1640, and the sample was diluted 2 times, which was cultured for 72 to 96 hours at a 96-well culture dish while being gently agitated and assayed for photoelectric colorimetric assay at 490 nm.
(§2) Tested fungi include Saccharomyces, candida Albicans 01-5, 01-1, 02-6, candida Albicans CMCC, Aspergillus niger, Cryptococcus neoformans, Trichophyton rubrum, and Trichophyton verrucosum and MIC Results were listed at Table 2.

candida Albicans 01-1 = assay: In vitro drug sensitivity MIC test; assay type: cell-based
Protocol: as §1, §2

Saccharomyces = assay: In vitro drug sensitivity MIC test; assay type: cell-based
Protocol: as §1, §2

Aspergillus niger = assay: In vitro drug sensitivity MIC test; assay type: cell-based
Protocol: as §1, §2

Trichophyton verrucosum = assay: In vitro drug sensitivity MIC test; assay type: cell-based
Protocol: as §1, §2

Trichophyton rubrum = assay: In vitro drug sensitivity MIC test; assay type: cell-based
Protocol: as §1, §2

Cryptococcus neoformans = assay: In vitro drug sensitivity MIC test; assay type: cell-based
Protocol: as §1, §2

candida Albicans 01-5 = assay: In vitro drug sensitivity MIC test; assay type: cell-based
Protocol: as §1, §2

candida Albicans 02-6 [2] = assay: In vitro drug sensitivity MIC test; assay type: cell-based
Protocol: as §1, §2

candida Albicans [3] = assay: In vitro drug sensitivity MIC test; assay type: cell-based
Protocol: as §1, §2

candida Albicans [4] = assay: Inhibiting zone on candida Albicans; assay type: cell-based; settings: at the concentration of 10 μg/ml
Protocol: [drawing 30] was tested by Jiangsu Hengrui Pharmaceutical Co., Ltd. The bioactivity against fungal infection of various antibiotics were tested.

[5] = test system: mice medulla polychromatic erythrocyte; assay: Micronucleus test of mice medulla; assay type: in vivo, ICR mice
Protocol: Seventy ICR mice were randomly divided into 7 groups with 10 mice per group having 5 males and 5 females in each group. The maximum tolerance dose (MTD) of the mice was more than 5000 mg/kg for 4,4′-biisofraxidin by intragastric gavage, so that the maximum dosage was 5000 mg/kg. Four dosage groups were set up with dosage amount of 5000, 2500, 1250, and 625 mg/kg, one negative and one positive control group. The intragastric gavage was carried out at once per day consecutively for 2 days. Samples were taken at 24 hours after the last intragastric administration and inspected under microscope.

candida Albicans 02-6 [6] = assay: In vivo protective test in infected mice; settings: for ED50: infection 2.07 × 10^4 CFU/ml; for Survival: 10 mice, within 7 days after infection
Protocol: 2˜3 monocolonies of selected tested fungus were inoculated in Sabouraud liquor culture medium, which was cultured for 18 hours at 37° C., and then it was diluted with 5% sterilized dried yeast liquor for next uses.
3. Healthy mice (lived in Kunming, China) weighed 18˜22 g were divided into groups randomly with 5 mice in each group. The fungal liquor 0.5 ml was injected into a mouse, which was observed continuously for 7 days after infection. Mortality of the mice was recorded, and the minimum fungal dose that caused the mice be with a 100% mortality was named as MLD, which also was regarded as infection fungal dose in vivo protective test.
All test drugs were confected to requested concentration with 0.5% CMC including Fluoroconazole and 4,4′-biisofraxidin.
Test mice were divided into groups randomly according to gender and weight, 5 males and 5 females in each group. The infection fungal liquor 0.5 ml was injected into each mouse at the abdominal region at 0.5 ml per mouse. Two hours prior to the infection and 4 hours after infection, mice were orally administered with Fluoroconazole or 4,4′-biisofraxidin by intragastric gavage at various concentration. The comparative group was tested at the same time. Mortality was recorded within 7 days after infection, and effective dosage at half (median effective dose, ED50) and 95% confidence limit were calculated by the Bliss's method. Fluoroconazole and 4,4′-biisofraxidin were tested on their in vivo protection activity on candida Albicans 02-6 infected mice, and ED50 was calculated by the Bliss's method at 95% confidence limit.

[7] = Acute toxicity test in vivo in mice (Example 21); settings: for death: after testing 14 days, 14 mice (4,4′-biisofraxidin), 4 mice (Fluoroconazole)
[8] = Acute toxicity test, oral, ICR mice (Example 22); settings: for mortality: single oral dose (5 g/kg for 4,4′-biisofraxidin)
Excerpt: Acute toxicity of 4,4′-biisofraxidin and Fluoconazole were simultaneously evaluated and the toxicity reaction and mortality were observed and compared for values of LD50 for ICR mice which were orally administered with 4,4′-biisofraxidin or Fluoconazole.

[9] = Comparison of liver toxicity, serum ALT/AST of ICR mice; assay type: in vivo; settings: 1.6 g/kg oral, mean (values of each sample)
Protocol: ICR mice were orally administered with 4,4′-biisofraxidin or Fluoconazole at the same dosage of 1.6 g/kg, and blood samples were taken at 4 hours and 24 hours after the administration, and serum was separated from blood samples for testing liver indices of asparate aminotransferase test (AST) and alanine aminotransferase test (ALT).

[10] = candida Albicans, second strain without code (r8)
[11] = drug dose 65.5 mg/kg, intragastric gavage
[12] = drug dose 89.2 mg/kg, intragastric gavage
[13] = drug dose 102.4 mg/kg, intragastric gavage
[14] = drug dose 128 mg/kg, intragastric gavage
[15] = drug dose 160 mg/kg, intragastric gavage
[16] = drug dose 200 mg/kg, intragastric gavage

4,4′-biisofraxidin
Median Inhibitory Concentration (IC50) (CHL cell; CHL cell): 248 µg/mL
mutagenicity (CHL cell; high dosage 248 μg/ml): 12%
mutagenicity (CHL cell; low to medium dosage (62, 124 μg/ml)): 1%
chromosome aberration conclusion (CHL cell; relatively high dosage): weak mutagen
effect on growth of bacteria ([1]; high dose 5000 μg/dish): inhibit the growth
gene mutation ([1]; other dosages): couldn't induce gene mutation
effect on growth of bacteria ([1]; other four doses (5, 50, 500, 1000 μg/dish)): no obvious effect
MIC (candida Albicans CMCC): >128 µg/mL
MIC (candida Albicans 01-1; candida Albicans 01-1): 64 µg/mL
MIC (Saccharomyces): >128 µg/mL
MIC (Aspergillus niger): 128 µg/mL
MIC (Trichophyton verrucosum): 128 µg/mL
MIC (Trichophyton rubrum): 16 µg/mL
MIC (Cryptococcus neoformans): 64 µg/mL
MIC (candida Albicans 01-5; candida Albicans 01-5): 64 µg/mL
MIC (candida Albicans 02-6 [2]): 32 µg/mL
MIC (candida Albicans [3]; candida Albican, summary in the conclusion): ≥ 128 µg/mL
MIC (candida Albicans [3]; candida Albicans, first strain without code (r7)): 64 µg/mL
MIC (candida Albicans [3]; [10]): >128 µg/mL
inhibiting zone (candida Albicans [4]): 10 mm
micronucleus number ([5]; 5000, 2500, 1250, 625 mg/kg, intragastric, once per day for 2 days, 24 hours after last dose): no effect on inducing increase in micronucleus number
maximum tolerance dose (MTD) ([5]; mice, intragastric gavage): more than 5000 mg/kg
95% confidence limit of ED50 (candida Albicans 02-6 [6]; Bliss's method): (127.97–130.7) mg/kg
ED50 (candida Albicans 02-6 [6]; Bliss's method, intragastric gavage): 149.50 mg/kg
Survival rate (%) (candida Albicans 02-6 [6]; [11]): 0%
Survival (candida Albicans 02-6 [6]; [11]): 0
Survival rate (%) (candida Albicans 02-6 [6]; [12]): 10%
Survival (candida Albicans 02-6 [6]; [12]): 1
Survival rate (%) (candida Albicans 02-6 [6]; [13]): 20%
Survival (candida Albicans 02-6 [6]; [13]): 3
Survival rate (%) (candida Albicans 02-6 [6]; [14]): 40%
Survival (candida Albicans 02-6 [6]; [14]): 4
Survival rate (%) (candida Albicans 02-6 [6]; [15]): 60%
Survival (candida Albicans 02-6 [6]; [15]): 6
Survival rate (%) (candida Albicans 02-6 [6]; [16]): 70%
Survival (candida Albicans 02-6 [6]; [16]): 7
protective effect in vivo (candida Albicans 02-6 [6]; intragastric gavage): obvious protective effect
death [7]: no death
MTD ([7]; mice, 14 days): more than 5 g/kg
half lethal dose (LD50) ([7]; mice, 14 days): undetectable
toxicity reaction ([8]; single oral dose): no obvious toxicity reaction
mortality [8]: 0/10
MTD ([8]; single oral dose, 14 days observation): higher than 5 g/kg

OC(Cn1cncn1)(Cn1cncn1)c1ccc(F)cc1F [Fluoroconazole, reference compound]
ALT (U/L) ([9]; 4 hours after treatment): 84.5 (87, 82) U/L
AST (U/L) ([9]; 4 hours after treatment): 189.5 (155, 224) U/L
ALT (U/L) ([9]; 24 hours after treatment): 53.5 (40, 67) U/L
AST (U/L) ([9]; 24 hours after treatment): 99 (73, 125) U/L
MIC (candida Albicans CMCC; read-out: MIC): 64 µg/mL (≈ 209 µM)
MIC (candida Albicans 01-1; Candida albicans): 128 µg/mL (≈ 418 µM)
MIC (Saccharomyces; read-out: MIC): 64 µg/mL (≈ 209 µM)
MIC (Aspergillus niger): > 128 µg/mL
MIC (Trichophyton verrucosum): 128 µg/mL (≈ 418 µM)
MIC (Trichophyton rubrum; read-out: MIC): 16 µg/mL (≈ 52.2 µM)
MIC (Cryptococcus neoformans; read-out: MIC): 16 µg/mL (≈ 52.2 µM)
MIC (candida Albicans 01-5; Candida albicans): 128 µg/mL (≈ 418 µM)
MIC (candida Albicans 02-6 [2]; read-out: MIC): 64 µg/mL (≈ 209 µM)
MIC (candida Albicans [3]; Candida albicans): > 128 µg/mL
MIC (candida Albicans [3]; [10]): >128 µg/mL
ED50 (candida Albicans 02-6 [6]; Candida albicans, Bliss's method, intragastric gavage, read-out: ED50): 136 mg/kg
Survival rate (%) (candida Albicans 02-6 [6]; [11]): 0%
Survival (candida Albicans 02-6 [6]; [11]): 0
Survival rate (%) (candida Albicans 02-6 [6]; [12]): 20%
Survival (candida Albicans 02-6 [6]; [12]): 2
Survival rate (%) (candida Albicans 02-6 [6]; [13]): 40%
Survival (candida Albicans 02-6 [6]; [13]): 4
Survival rate (%) (candida Albicans 02-6 [6]; [14]): 40%
Survival (candida Albicans 02-6 [6]; [14]): 4
Survival rate (%) (candida Albicans 02-6 [6]; [15]): 60%
Survival (candida Albicans 02-6 [6]; [15]): 6
Survival rate (%) (candida Albicans 02-6 [6]; [16]): 80%
Survival (candida Albicans 02-6 [6]; [16]): 8
LD50 at 14 days ([7]; ICR, mouse, in vivo, 1.6 g/kg): ~1600 mg/kg
death [7]: 2
toxicity relative to 4,4′-biisofraxidin ([7]; mouse, in vivo): three times larger
toxicity reaction ([8]; single oral dose): dispirited and inert
mortality [8]: 2/4
